Assay results published in ChEMBL document CHEMBL1122249, “Synthesis of hypoxanthine, guanine, and 6-thiopurine nucleosides of 6-deoxy-D-allofuranose” (1983).

What was measured:
Mus musculus [1] = assay: Average weight change in mouse after the treatment with 12.5 mg/kg dose of the compound; assay type: functional
Mus musculus [2] = assay: Average weight change in mouse after the treatment with 25 mg/kg dose of the compound; assay type: functional
Mus musculus [3] = assay: Survivors after the treatment with 25 mg/kg dose for 5 days in 6 mice; assay type: functional
Mus musculus [4] = assay: Survivors after the treatment with 12.5 mg/kg dose for 5 days in 6 mice; assay type: functional
L1210 [5] = assay: Median survival time of inhibitory activity against L1210 tumor cells in mouse at the dose of 25 mg/kg; assay type: functional
Mus musculus [6] = assay: Survivors after the treatment with 200 mg/kg dose for 5 days in 6 mice; assay type: functional
L1210 [7] = assay: Median survival time of inhibitory activity against L1210 tumor cells in mouse at the dose of 12.5 mg/kg; assay type: functional
Mus musculus [8] = assay: Average weight change in mouse after the treatment with 100 mg/kg dose of the compound; assay type: functional
Mus musculus [9] = assay: Average weight change in mouse after the treatment with 200 mg/kg dose of the compound; assay type: functional
Mus musculus [10] = assay: Survivors after the treatment with 100 mg/kg dose for 5 days in 6 mice; assay type: functional
Mus musculus [11] = assay: Average weight change in mouse after the treatment with 50 mg/kg dose of the compound; assay type: functional
L1210 [12] = assay: Median survival time of inhibitory activity against L1210 tumor cells in mice at the dose of 200 mg/kg; assay type: functional, Mus musculus
L1210 [13] = assay: Median survival time of inhibitory activity against L1210 tumor cells in mouse at the dose of 100 mg/kg; assay type: functional
L1210 [14] = assay: Median survival time of inhibitory activity against L1210 tumor cells in mouse at the dose of 50 mg/kg; assay type: functional
Mus musculus [15] = assay: Survivors after the treatment with 50 mg/kg dose for 5 days in 6 mice; assay type: functional

CC(O)[C@H]1O[C@@H](n2cnc3c(S)ncnc32)[C@H](O)[C@@H]1O (stereo not given in full)
Average weight change (Mus musculus [1]): -1 | Average weight change (Mus musculus [2]): -1.4 | Survivors (Mus musculus [3]): 6 | Survivors (Mus musculus [4]): 6 | T/C (L1210 [5]): 116% | Survivors (Mus musculus [6]): 6 | T/C (L1210 [7]): 107% | Average weight change (Mus musculus [8]): -3.6 | Average weight change (Mus musculus [9]): -4.4 | Survivors (Mus musculus [10]): 6 | Average weight change (Mus musculus [11]): -1.7 | T/C (L1210 [12]): 148% | T/C (L1210 [13]): 146% | T/C (L1210 [14]): 142% | Survivors (Mus musculus [15]): 6
